Patent publication US11339171B2, “MDM2 inhibitors” (Gan & Lee Pharmaceuticals, priority 2017, dated 2022)
Values joined by “and” are separate entries in the source; they are usually repeats but may differ in a detail not shown here. Identical values can stand only once. Like-named read-outs stand apart in the source and are kept apart here.

What was measured:
[1] = tested on: human osteosarcoma cell line SJSA-1; assay: Inhibition of proliferation of human osteosarcoma cell line SJSA-1 (DAPI staining, In Cell Analyzer); conditions: Homo sapiens, SJSA-1, 72 h, read-out: IC50 (nM), inhibitory activity on proliferation of human osteosarcoma cell line SJSA-1, SJSA-1, incubated 72 h
[2] = Pharmacokinetics in ICR mice after intravenous and intragastric administration; assay type: in vivo; conditions: for F*: PO 5 mg/kg vs IV 2 mg/kg; for MRT last: read-out: MRT(0-t); for MRT inf: read-out: MRT(0-∞); for Vd: read-out: Vz
Method in brief: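 Plasma concentrations by LC-MS/MS (range 1 to 2000 ng/ml) following single intravenous (2 mg/kg) or oral gavage (5 mg/kg) dosing of fasted male ICR mice, three per group. Vehicle 5% DMSO + 40% PEG400 + 55% (10% HP-β-CD in saline); standard PK parameters including bioavailability calculated.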

[3] = target: T1, MDM2 (Homo sapiens, UniProt Q00987); assay: Inhibition test of MDM2-P53 (GST-MDM2, Biotin-P53, Anti-GST-Tb, SA-XL665); assay type: binding
T1 construct: made in house
Method in brief: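 Binding was measured by TR-FRET with GST-MDM2 at 4 nM final in PBS with 0.1% BSA, 5 mM DTT and 1 mM AEBSF. Compounds were tested as twelve-point 5-fold dilutions and incubated with the detection mix for 90 min at 25 °C with shaking before plate-reader reading and curve fitting.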

[4] = IV 2 mg/kg, ICR mice, individual animal, 2 mg/kg
[5] = PO 5 mg/kg, ICR mice, individual animal, 5 mg/kg
[6] = male, ICR, mouse, plasma, iv, 2 mg/kg, IV 2 mg/kg, ICR mice, Mean
[7] = male, ICR, mouse, plasma, iv, 2 mg/kg, IV 2 mg/kg, ICR mice, Mean, read-out: AUC(0-t)
[8] = male, ICR, mouse, plasma, iv, 2 mg/kg, IV 2 mg/kg, ICR mice, Mean, read-out: Cmax
[9] = male, ICR, mouse, plasma, iv, 2 mg/kg, IV 2 mg/kg, ICR mice, Mean, read-out: Tmax
[10] = male, ICR, mouse, plasma, iv, 2 mg/kg, IV 2 mg/kg, ICR mice, Mean, read-out: t1/2 (converted)
[11] = male, ICR, mouse, plasma, iv, 2 mg/kg, IV 2 mg/kg, ICR mice, individual animal
[12] = male, ICR, mouse, plasma, iv, 2 mg/kg, IV 2 mg/kg, ICR mice, individual animal, read-out: AUC(0-t)
[13] = male, ICR, mouse, plasma, iv, 2 mg/kg, IV 2 mg/kg, ICR mice, individual animal, read-out: Cmax
[14] = male, ICR, mouse, plasma, iv, 2 mg/kg, IV 2 mg/kg, ICR mice, individual animal, read-out: Tmax
[15] = male, ICR, mouse, plasma, iv, 2 mg/kg, IV 2 mg/kg, ICR mice, individual animal, read-out: t1/2 (converted)
[16] = male, ICR, mouse, plasma, po, 5 mg/kg, PO 5 mg/kg, ICR mice, Mean
[17] = male, ICR, mouse, plasma, po, 5 mg/kg, PO 5 mg/kg, ICR mice, Mean, read-out: AUC(0-t)
[18] = male, ICR, mouse, plasma, po, 5 mg/kg, PO 5 mg/kg, ICR mice, Mean, read-out: Cmax
[19] = male, ICR, mouse, plasma, po, 5 mg/kg, PO 5 mg/kg, ICR mice, Mean, read-out: Tmax
[20] = male, ICR, mouse, plasma, po, 5 mg/kg, PO 5 mg/kg, ICR mice, Mean, read-out: t1/2 (converted)
[21] = male, ICR, mouse, plasma, po, 5 mg/kg, PO 5 mg/kg, ICR mice, individual animal
[22] = male, ICR, mouse, plasma, po, 5 mg/kg, PO 5 mg/kg, ICR mice, individual animal, read-out: AUC(0-t)
[23] = male, ICR, mouse, plasma, po, 5 mg/kg, PO 5 mg/kg, ICR mice, individual animal, read-out: Cmax
[24] = male, ICR, mouse, plasma, po, 5 mg/kg, PO 5 mg/kg, ICR mice, individual animal, read-out: Tmax
[25] = male, ICR, mouse, plasma, po, 5 mg/kg, PO 5 mg/kg, ICR mice, individual animal, read-out: t1/2 (converted)
[26] = male, ICR, mouse, plasma, po, 5 mg/kg, oral intragastric administration 5 mg/kg, read-out: AUC0-t

T1 sequence (Q00987 whole entry): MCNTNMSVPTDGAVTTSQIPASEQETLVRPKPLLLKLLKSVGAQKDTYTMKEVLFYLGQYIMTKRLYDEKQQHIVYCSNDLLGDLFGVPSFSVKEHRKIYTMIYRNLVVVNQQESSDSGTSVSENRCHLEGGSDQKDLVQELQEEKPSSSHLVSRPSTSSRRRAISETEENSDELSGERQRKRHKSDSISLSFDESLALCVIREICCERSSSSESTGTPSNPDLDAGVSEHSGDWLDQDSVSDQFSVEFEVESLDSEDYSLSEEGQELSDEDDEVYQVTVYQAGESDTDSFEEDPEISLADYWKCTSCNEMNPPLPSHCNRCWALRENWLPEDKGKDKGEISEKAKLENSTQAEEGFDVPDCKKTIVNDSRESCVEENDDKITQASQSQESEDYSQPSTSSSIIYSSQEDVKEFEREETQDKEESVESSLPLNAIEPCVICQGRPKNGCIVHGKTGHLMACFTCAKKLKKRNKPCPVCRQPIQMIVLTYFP

With COc1cc(OC)c(-c2nc3c(n2C(C)C)[C@@]2(C(=O)Nc4cc(Cl)ccc42)N(c2cc(Cl)ccc2C)C3=O)cn1 [Example S-11, (S)-6-chloro-5′-(5-chloro-2-methylphenyl)-2′-(4,6-dimethoxypyridin-3-yl)-3′-isopropyl-3′H-spiro[dihydroindole-3,4′-pyrrolo[3,4-d]imidazole]-2,6′(5′H)-dione] the IC50 [1] was 1.67 nM, the “AUC(0-t)” value [2, 4] was 3578.38 ng·h/mL and 4225.58 ng·h/mL and the “AUC(0-∞)” value [2, 4] was 3680.24 ng·h/mL and 4820.40 ng·h/mL. The CL [2, 4] was 9.06 mL/min/kg and 6.92 mL/min/kg, the Cmax [2, 4] was 1376.51 ng/mL and 1519.69 ng/mL and the “MRT(0-t)” value [2, 4] was 1.43 h and 1.81 h. The “MRT(0-∞)” value [2, 4] was 1.61 h and 2.70 h, the Vz [2, 4] was 0.91 L/kg and 1.25 L/kg and the t1/2 [2, 4] was 2.09 h. The “F*” value ([2]; ICR mice) was 102.51%, the “AUC(0-t)” value [2, 5] was 8536.56 ng·h/mL and 11568.40 ng·h/mL and the “AUC(0-∞)” value [2, 5] was 8816.41 ng·h/mL and 11784.98 ng·h/mL. The Cmax [2, 5] was 1573.02 ng/mL and 2144.69 ng/mL, the “MRT(0-t)” value [2, 5] was 2.87 h and the “MRT(0-∞)” value [2, 5] was 3.11 h and 3.05 h. For the same compound, the Tmax [2, 5] was 2.00 h, the t1/2 [2, 5] was 1.55 h and 1.33 h and the AUC(0-inf) [2, 6] was 3920 ng·h/mL. The clearance [2, 6] was 8.74 mL/min/kg, the AUC(0-t) [2, 7] was 3660 ng·h/mL and the Cmax [2, 8] was 1400 ng/mL. It also gave an MRT last [2, 6] of 1.55 h, an MRT inf [2, 6] of 1.95 h and a Tmax [2, 9] of 0.5 h. For the same compound, the Vd [2, 6] was 1.06 L/kg, the half-life [2, 10] was 1.46 h and the AUC(0-inf) [2, 11] was 3250 ng·h/mL. The clearance [2, 11] was 10.3 mL/min/kg, the AUC(0-t) [2, 12] was 3170 ng·h/mL and the Cmax [2, 13] was 1300 ng/mL. For the same compound, the MRT last [2, 11] was 1.4 h, the MRT inf [2, 11] was 1.55 h and the Tmax [2, 14] was 0.5 h. It also gave a Vd [2, 11] of 1.02 L/kg, a half-life [2, 15] of 1.15 h and an AUC(0-inf) [2, 16] of 9790 ng·h/mL. The AUC(0-t) [2, 17] was 9370 ng·h/mL, the Cmax [2, 18] was 1790 ng/mL and the MRT last [2, 16] was 2.92 h. The MRT inf [2, 16] was 3.27 h, the Tmax [2, 19] was 1.33 h and the half-life [2, 20] was 1.69 h. It also gave an AUC(0-inf) [2, 21] of 8770 ng·h/mL, an AUC(0-t) [2, 22] of 8020 ng·h/mL and a Cmax [2, 23] of 1650 ng/mL. For the same compound, the MRT last [2, 21] was 2.96 h, the MRT inf [2, 21] was 3.66 h and the Tmax [2, 24] was 1 h. The half-life [2, 25] was 2.18 h, the AUC(0-t) [2, 26] was 9370 ng·h/mL and the half-life ([2]; male, ICR, mouse, plasma, po, 5 mg/kg, oral intragastric administration 5 mg/kg, read-out: half-life (converted)) was 1.69 h. The bioavailability ([2]; male, ICR, mouse, plasma, oral intragastric administration 5 mg/kg, read-out: bioavailability) was 103% and the IC50 [3] was 1.58 nM.
In the case of COc1cc(N(C)C)ccc1-c1nc2c(n1C(C)C)[C@@]1(C(=O)Nc3cc(Cl)ccc31)N(c1cc(Cl)ccc1C)C2=O [Example S-23, (S)-6-chloro-5′-(5-chloro-2-methylphenyl)-2′-(4-(dimethylamino)-2-methoxyphenyl)-3′-isopropyl-3′H-spiro[dihydroindole-3,4′-pyrrolo[3,4-d]imidazole]-2,6′(5′H)-dione], the IC50 [1] is reported as 1.24 nM, the “AUC(0-t)” value [2, 4] is reported as 6172.76 ng·h/mL and 6625.30 ng·h/mL and the “AUC(0-∞)” value [2, 4] is reported as 6427.71 ng·h/mL and 7084.65 ng·h/mL. For the same compound, the CL [2, 4] was 5.19 mL/min/kg and 4.71 mL/min/kg, the Cmax [2, 4] was 3040.32 ng/mL and 3640.21 ng/mL and the “MRT(0-t)” value [2, 4] was 1.50 h and 1.55 h. The “MRT(0-∞)” value [2, 4] was 1.75 h and 1.99 h, the Vz [2, 4] was 0.60 L/kg and 0.64 L/kg and the t1/2 [2, 4] was 1.33 h and 1.57 h. For the same compound, the “F*” value ([2]; ICR mice) was 43.18%, the “AUC(0-t)” value [2, 5] was 9122.66 ng·h/mL and 7675.41 ng·h/mL and the “AUC(0-∞)” value [2, 5] was 9163.57 ng·h/mL and 7881.03 ng·h/mL. The Cmax [2, 5] was 3316.65 ng/mL and 2730.39 ng/mL, the “MRT(0-t)” value [2, 5] was 2.02 h and 2.08 h and the “MRT(0-∞)” value [2, 5] was 2.05 h and 2.29 h. The Tmax [2, 5] was 0.50 h, the t1/2 [2, 5] was 0.98 h and 1.52 h and the AUC(0-inf) [2, 6] was 8010 ng·h/mL. For the same compound, the clearance [2, 6] was 4.35 mL/min/kg, the AUC(0-t) [2, 7] was 7420 ng·h/mL and the Cmax [2, 8] was 3490 ng/mL. The MRT last [2, 6] was 1.61 h, the MRT inf [2, 6] was 2.07 h and the Tmax [2, 9] was 0.083 h. It also gave a Vd [2, 6] of 0.58 L/kg, a half-life [2, 10] of 1.59 h and an AUC(0-inf) [2, 11] of 10500 ng·h/mL. For the same compound, the clearance [2, 11] was 3.17 mL/min/kg, the AUC(0-t) [2, 12] was 9460 ng·h/mL and the Cmax [2, 13] was 3780 ng/mL. It also gave an MRT last [2, 11] of 1.78 h, an MRT inf [2, 11] of 2.46 h and a Tmax [2, 14] of 0.08 h. It also gave a Vd [2, 11] of 0.51 L/kg, a half-life [2, 15] of 1.86 h and an AUC(0-inf) [2, 16] of 8120 ng·h/mL. For the same compound, the AUC(0-t) [2, 17] was 8010 ng·h/mL, the Cmax [2, 18] was 2700 ng/mL and the MRT last [2, 16] was 2.15 h. For the same compound, the MRT inf [2, 16] was 2.26 h, the Tmax [2, 19] was 0.83 h and the half-life [2, 20] was 1.22 h. For the same compound, the AUC(0-inf) [2, 21] was 7320 ng·h/mL, the AUC(0-t) [2, 22] was 7240 ng·h/mL and the Cmax [2, 23] was 2050 ng/mL. It also gave an MRT last [2, 21] of 2.35 h, an MRT inf [2, 21] of 2.43 h and a Tmax [2, 24] of 1 h. It also gave a half-life [2, 25] of 1.15 h, an AUC(0-t) [2, 26] of 8010 ng·h/mL and an IC50 [3] of 2.8 nM.
